Tests used:
[1] = refractive index (Na D-line) (dimensionless); conditions: 101.33 kPa, Liquid, Standard Abbe refractometry
[2] = for viscosity / mass density: 101.33 kPa, Liquid; for viscosity: Cone and plate viscometry; for mass density: Vibrating tube method; for surface tension liquid-gas: Pendant drop shape

CCCC[N+](C)(CCCC)CCCC.O=S(=O)([N-]S(=O)(=O)C(F)(F)F)C(F)(F)F [tributylmethylammonium bis((trifluoromethyl)sulfonyl)imide]
Conditions | mass density, [2] [kg/m3] | refractive index, [1] | surface tension liquid-gas, [2] [mN/m] | viscosity, [2] [mPa·s]
283.15 K | 1276 | 1.4308 | – | 2049.8
288.15 K | 1271.7 | 1.42933 | – | 1264
293.15 K | 1267.3 | 1.42787 | – | 819.2
293.3 K | – | – | 30.8 | –
298.15 K | 1262.8 | 1.42643 | – | 538.9
298.2 K | – | – | 30.6 | –
303.15 K | 1258.4 | 1.42491 | – | 369.3
303.2 K | – | – | 30.2 | –
308.15 K | 1254.1 | 1.42338 | – | 260.4
313.15 K | 1249.9 | 1.42194 | – | 189.5
313.2 K | – | – | 29.7 | –
318.15 K | 1245.8 | 1.42047 | – | 139.6
323.15 K | 1241.7 | 1.41902 | – | 105.6
323.2 K | – | – | 29.1 | –
328.15 K | 1237.6 | 1.41758 | – | 81.5
333.15 K | 1233.6 | 1.41613 | – | 64.1
338.15 K | 1229.5 | 1.41468 | – | 51.1
343.15 K | 1225.5 | 1.41324 | – | 41.4
348.15 K | 1221.5 | 1.4118 | – | 34
353.15 K | 1217.5 | 1.4104 | – | 28.3

CCCC[N+](C)(C)C.O=S(=O)([N-]S(=O)(=O)C(F)(F)F)C(F)(F)F [butyltrimethylammonium bis(trifluoromethylsulfonyl)imide]
Conditions | mass density, [2] [kg/m3] | refractive index, [1] | surface tension liquid-gas, [2] [mN/m] | viscosity, [2] [mPa·s]
283.15 K | 1407.8 | 1.4122 | – | 254.2
288.15 K | 1403.2 | 1.41083 | – | 184.6
293.15 K | 1398.7 | 1.40945 | – | 137.7
293.2 K | – | – | 33.4 | –
298.15 K | 1394.2 | 1.40818 | – | 105.2
298.2 K | – | – | 33.2 | –
303.15 K | 1389.8 | 1.40676 | – | 82
303.2 K | – | – | 33 | –
308.15 K | 1385.4 | 1.40538 | – | 65.2
313.1 K | – | – | 32.5 | –
313.15 K | 1381 | 1.40405 | – | 52.7
318.15 K | 1376.6 | 1.40273 | – | 43.2
323.1 K | – | – | 32 | –
323.15 K | 1372.3 | 1.40142 | – | 35.9
328.15 K | 1368 | 1.40006 | – | 30.2
333.1 K | – | – | 31.5 | –
333.15 K | 1363.7 | 1.39877 | – | 25.7
338.15 K | 1359.5 | 1.39747 | – | 22
343.15 K | 1355.2 | 1.39616 | – | 19.1
348.15 K | 1351 | 1.39486 | – | 16.7
353.15 K | 1346.8 | 1.39358 | – | 14.7
